ChEMBL document CHEMBL1157334, “Neuroprotective diterpenes from the fruiting body of Antrodia camphorata” (2006)

Columns and labels:
[1] = Neuroprotective effect against amyloid beta(25 to 35)-induced cell death in Harlan Sprague-Dawley rat pups cortical neurons assessed as cell viability at 5 uM treated 2 hrs before amyloid beta(25 to 35) treatment after 40 hrs by MTT assay; assay type: functional, Cortical neurone; conditions: for viability at 5 µM: Rattus norvegicus, Harlan Sprague-Dawley, Cortical neurone, read-out: Activity
[2] = Neuroprotective effect against amyloid beta(25 to 35)-induced cell death in Harlan Sprague-Dawley rat pups cortical neurons assessed as cell viability at 10 uM treated 2 hrs before amyloid beta(25 to 35) treatment after 40 hrs by MTT assay; assay type: functional; conditions: Cortical neurone, read-out: Activity
[3] = Neuroprotective effect against amyloid beta(25 to 35)-induced cell death in Harlan Sprague-Dawley rat pups cortical neurons assessed as cell viability at 1 uM treated 2 hrs before amyloid beta(25 to 35) treatment after 40 hrs by MTT assay; assay type: functional, Cortical neurone; conditions: for viability at 1 µM: Rattus norvegicus, Harlan Sprague-Dawley, Cortical neurone, read-out: Activity

Row | SMILES | viability at 5 µM [1] [%] | viability at 10 µM [2] [%] | viability at 1 µM [3] [%] | Activity [1] [%] | Activity [3] [%]
1 | C=C1CC[C@@H]2[C@](C)(CO)[C@H](O)CC[C@@]2(C)[C@@H]1/C=C/C1=CCOC1=O | 35.7 | 30.8 | 40.7 | – | –
2 | CC(=O)N[C@@H](CC(=O)O)C(=O)N[C@@H](CCC(=O)O)C(=O)N[C@H](C(=O)N[C@H](C=O)CC(=O)O)C(C)C | 30.2 | 24.5 | 35.8 | – | –
3 | C=C1CC[C@H]2[C@@](C)(CO)CCC[C@]2(C)[C@H]1CCC1CCOC1=O (some centres not stated) | 25.3 | 28.1 | 34.4 | – | –
4 | C=C1CC[C@H]2[C@@](C)(CO)CCC[C@]2(C)[C@H]1CCC1=CCOC1=O | 34.8 | 28.9 | 41.2 | – | –
5 | C=C1CC[C@@H]2[C@](C)(CC[C@H](O)[C@]2(C)CO)[C@H]1/C=C/C1CCOC1=O (stereo in doubt; 2) | – | – | – | 34.9 | 43.8
6 | C=C1CC[C@@H]2[C@](C)(CC[C@H](O)[C@]2(C)CO)[C@H]1/C=C/C1CCOC1=O (stereo in doubt; 3) | 39.6 | 36.7 | 45.1 | – | –
